Consider six compounds from paper PMC10227015, “From a drug repositioning to a structure-based drug design approach to tackle acute lymphoblastic leukemia” (Nature Communications, 2023).

Where two headings read alike, the source gives them in different places.

Experiment [1] relates to CCRF-CEM cell line. Put plainly: dCK cellular assay: CCRF-CEM proliferation in the presence of dT and dC. Format: cell-based, human. Conditions: for activity at 0.078 µM: 78 nM; for activity at 0.156 µM: 156 nM; for activity at 0.312 µM: 312 nM; for activity at 0.625 µM: 625 nM; for activity at 1.25 µM: 1250 nM; for activity at 2.5 µM: 2500 nM; for activity at 5 µM: 5000 nM; for activity at 20 µM: 20000 nM; for activity at 40 µM: 40000 nM; for activity at 0.0195 µM: 19.5 nM; for activity at 0.039 µM: 39 nM. In short, it runs like this: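 Two conditions in T-ALL CCRF-CEM cells: compound only, and compound with thymidine blocking de novo synthesis and deoxycytidine rescuing via dCK. Metabolic dye fluorescence (560/590 nm) gives % proliferation vs DMSO; IC50s, mean ± SD of at least three triplicate runs.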

The subject of a further experiment is dCK-C3S-S74E. The experiment in a line: Thermal shift assay (TSA). Conditions: for ΔTm, dCK thermal stabilization (TSA): 5 μM protein, 50 μM compound; for THERMAL SHIFT ASSAY +Tm (°): mean ± SD.
Experiment [2] relates to CCRF-CEM cell line. Put plainly: CCRF-CEM proliferation, compound alone (nonspecific toxicity). In kind it is cell-based, human. Particulars: compound 10 µM alone, 72 h. The protocol:
The dCK cellular assay was set up to assess the ability to inhibit dCK activity in a cellular model. The model was developed with a T-cell acute lymphoblastic leukemia cell line (CCRF-CEM), because of its high dependence on the SP, thus on dCK activity. Cellular assays were performed to assess the inhibition of cell proliferation under two conditions: (i) in the presence of the compound alone to determine the nonspecific effect on cells, independent of dCK (nonspecific toxicity) and (ii) in the presence of an inhibitor of the DNP to determine the ability of compounds to inhibit dCK and decrease tumor proliferation (activity on dCK). The inhibitor of the DNP chosen for the experiments was thymidine (dT), a physiological inhibitor of ribonucleotide reductase which arrests cell proliferation in phase S. The dTTP produced via thymidine kinase from dT acts as a RNR inhibitor by an allosteric regulation of the R1 subunit. The addition of the nucleoside deoxycytidine (dC) in the medium allows the rescue of cell proliferation by passing only through the salvage pathway, mediated by dCK. dC needs to be added exogenously to mimic physiological concentrations because it is not present in the cell culture medium, on the contrary to mouse model, in which it is naturally present in the serum. Therefore, cell proliferation under these conditions (+dT +dC) is dCK dependent and it is possible to determine the IC50 of dCK inhibitors on the inhibition of cell proliferation. Results are expressed as % cell proliferation relative to the control with DMSO.
The amount of reduced dye formed by metabolically active cells was quantified by its fluorescence measured at 560 nm (excitation) and 590 nm (emission) in a microplate reader (CLARIOstar, BMG Labtech). A blank well without cells was used as a background control. Each experiment was performed at least three times (with technical triplicates) and data are presented as the mean ± SD.

Setting [3] is: Homo sapiens, CCRF-CEM, dT 200 µM + dC 1 µM, read-out: Cell proliferation of the CCRF-CEM cell line Mean (% prolif).
Setting [4] is: Homo sapiens, CCRF-CEM, 10000 nM, dT 200 µM + dC 1 µM, read-out: Cell proliferation of the CCRF-CEM cell line Mean (% prolif).
Setting [5] is: Homo sapiens, CCRF-CEM, dT 200 µM + dC 1 µM, 72 h, read-out: IC50 cell proliferation (dCK cellular assay).
The mark [6] stands for this setting: Homo sapiens, CCRF-CEM, compound 10 µM + dT 111 µM + dC 1 µM, 72 h, read-out: Cell proliferation of the CCRF-CEM cell line Mean (% prolif).
Setting [7] is: Homo sapiens, read-out: dCK CELLULAR ASSAY IC50 (nM), CCRF-CEM, 200 µM dT and 1 µM dC, read-out: dCK […] ASSAY IC50.
[8] abbreviates: Homo sapiens, CCRF-CEM, dT 200 µM + dC 1 µM, 72 h, read-out: IC50 cell proliferation.

dCK-C3S-S74E, sequence (P27707 whole entry S74E, form open): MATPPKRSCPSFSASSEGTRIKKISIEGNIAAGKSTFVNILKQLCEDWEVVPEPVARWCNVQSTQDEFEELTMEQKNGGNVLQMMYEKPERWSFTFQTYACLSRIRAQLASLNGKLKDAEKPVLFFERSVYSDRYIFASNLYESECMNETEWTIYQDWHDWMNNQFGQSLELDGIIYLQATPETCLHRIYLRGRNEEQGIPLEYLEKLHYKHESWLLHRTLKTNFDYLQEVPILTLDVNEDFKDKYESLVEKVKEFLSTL
Excerpt for dCK-C3S-S74E: BL21 pRIL Escherichia coli cells were transformed with dCK-plasmids (dCK-C4S-S74E (for crystallization assays) and dCK-C3S-S74E (for TSA, enzymatic and ITC assays)). […] Protein dCK-C3S-S74E used for other assays contained only three mutated cysteines. The S74E mutation mimics the phosphorylated state of this serine, which favors the open conformation of the enzyme, making it competent for nucleoside binding[45] to evaluate the binding affinity with compounds.
For binding assays (TSA, ITC and crystallography) cells were re-suspended in 50 mM TRIS, pH 8, 500 mM NaCl, 30 mM imidazole and 10% glycerol buffer and one EDTA free anti-protease tablet was added (Roche). After sonication and centrifugation (30,000 × g), the supernatant was loaded on a 5 ml HisTrap FF column (GE healthcare) pre-equilibrated with resuspension buffer. Protein was then eluted by resuspension buffer containing 500 mM imidazole. Protein eluted fractions were mixed and concentrated. Protein was further purified by size exclusion chromatography (superdex 200 16/600, GE healthcare) in 20 mM HEPES, pH 7.5, and 200 mM NaCl before concentration to 30 mg/ml and storage at −80 °C.
Thermal shift assay (TSA) experiments were performed in 384-well PCR white plates in the assay buffer containing 20 mM HEPES, pH 7.5 and 200 mM NaCl. […] Plates were centrifuged at 200 × g for 2 min at 4 °C. […] Raw fluorescence data were treated, and the melting temperatures (Tm) were calculated using CFX Manager 3.1 software (Bio-Rad). ΔTm represents the difference in Tm between the protein in the presence of compound and the protein alone (both at 2% DMSO). Each experiment was performed at least twice (with technical triplicates) and data are presented as the mean ± SD.

Turning to `Cc1ccc(-c2ccc(CN3CCN(C)CC3)cc2)cc1Nc1nc(-c2nccc(N)n2)cs1` [OR0274], in the experiment on CCRF-CEM cell line [1] (setting [3]), the activity at 0.078 µM amounted to 103%, the activity at 0.156 µM is 94.8%, the activity at 0.312 µM stood at 95.1% and the activity at 0.625 µM was 90.1%. For the same compound, in the experiment on CCRF-CEM cell line [1] (setting [3]), the activity at 1.25 µM is 75%, the activity at 2.5 µM is 55.5%, the activity at 5 µM turned out to be 31% and the activity at 20 µM was -0.0667%. For the same compound, in the experiment on CCRF-CEM cell line [1] (setting [3]), the activity at 40 µM came out at 0.167%. In addition, the activity at 10 µM in the experiment on CCRF-CEM cell line [1] (setting [4]) stood at 7.8%. The IC50 with CCRF-CEM cell line [1] (setting [5]) worked out at 2100 nM. In the experiment with dCK-C3S-S74E, the “ΔTm, dCK thermal stabilization (TSA)” value is 16.7 °C and the “THERMAL SHIFT ASSAY +Tm (°)” value turned out to be 16.7 ± 0.3 °. In addition, the “Thermal Shift Assay Mean (ΔTm (º))” value in the experiment with dCK-C3S-S74E (Figure 2b) is on record as 16.7 º.

Regarding `Cc1ccc(-c2ccc(CCN3CCN(C)CC3)cc2)cc1Nc1nc(-c2nccc(N)n2)cs1` [OR0325], in the experiment on CCRF-CEM cell line [1] (setting [3]), the activity at 0.078 µM came out at 100%, the activity at 0.156 µM was found to be 92.4%, the activity at 0.312 µM was 88.7% and the activity at 0.625 µM was determined as 81.5%. In the experiment on CCRF-CEM cell line [1] (setting [3]), the activity at 1.25 µM was 61.9%, the activity at 2.5 µM came to 40.5%, the activity at 5 µM came to 11.6% and the activity at 20 µM is -0.0333%. Besides, the activity at 40 µM with CCRF-CEM cell line [1] (setting [3]) amounted to 0.3%. In addition, the activity at 10 µM with CCRF-CEM cell line [1] (setting [4]) was determined as 0.0667%. In addition, in the experiment with CCRF-CEM cell line [1] (setting [5]), the IC50 worked out at 1680 nM. For the same compound, in the experiment with dCK-C3S-S74E, the “ΔTm, dCK thermal stabilization (TSA)” value worked out at 17.8 °C and the “THERMAL SHIFT ASSAY +Tm (°)” value is 17.9 ± 0.3 °. For the same compound, the “Thermal Shift Assay Mean (ΔTm (º))” value with dCK-C3S-S74E (Figure 2b) is 17.8 º.

Regarding `CCCN(c1nc(-c2nccc(N)n2)cs1)c1cc(-c2ccc(CCN3CCN(C)CC3)cc2)ccc1C` [OR0345], in the experiment on CCRF-CEM cell line [1] (setting [3]), the activity at 0.0195 µM was determined as 90.6%, the activity at 0.039 µM came to 85.8%, the activity at 0.078 µM stood at 82% and the activity at 0.156 µM was 72.4%. In the experiment on CCRF-CEM cell line [1] (setting [3]), the activity at 0.312 µM came to 63.4%, the activity at 0.625 µM was 51.4%, the activity at 1.25 µM stood at 37.6% and the activity at 2.5 µM is 19.3%. The activity at 5 µM in the experiment with CCRF-CEM cell line [1] (setting [3]) came out at 2.4%. For the same compound, the activity at 10 µM in the experiment with CCRF-CEM cell line [1] (setting [4]) turned out to be 0.333%. Moreover, the IC50 in the experiment on CCRF-CEM cell line [1] (setting [5]) amounted to 505 nM. The “fold improvement of cellular IC50” value in the experiment on CCRF-CEM cell line [1] (versus the preceding compound of the optimization) stood at 3 fold. For the same compound, in the experiment on dCK-C3S-S74E, the “ΔTm, dCK thermal stabilization (TSA)” value came to 18.4 °C and the “THERMAL SHIFT ASSAY +Tm (°)” value was 18.4 ± 0.2 °. Moreover, in the experiment with dCK-C3S-S74E (Figure 2b), the “Thermal Shift Assay Mean (ΔTm (º))” value is given as 18.4 º.

For `CCCN(c1nc(-c2nc(N)cc(N)n2)cs1)c1cc(-c2ccc(CCN3CCN(C)CC3)cc2)ccc1C` [OR0600], in the experiment on CCRF-CEM cell line [1] (Homo sapiens, CCRF-CEM, 9.75 nM, dT 200 µM + dC 1 µM, read-out: Cell proliferation of the CCRF-CEM cell line Mean (% prolif)), the activity at 0.00975 µM stood at 104%. In the experiment on CCRF-CEM cell line [1] (setting [3]), the activity at 0.0195 µM was 98.6%, the activity at 0.039 µM was 91.6%, the activity at 0.078 µM worked out at 85.9% and the activity at 0.156 µM worked out at 76.2%. For the same compound, in the experiment on CCRF-CEM cell line [1] (setting [3]), the activity at 0.312 µM turned out to be 59.2%, the activity at 0.625 µM was 40.4%, the activity at 1.25 µM was found to be 22.2% and the activity at 2.5 µM worked out at 5.5%. Also, the activity at 5 µM in the experiment with CCRF-CEM cell line [1] (setting [3]) turned out to be 0.133%. Also, in the experiment with CCRF-CEM cell line [1] (setting [5]), the IC50 was determined as 341 nM. Also, in the experiment with dCK-C3S-S74E, the “ΔTm, dCK thermal stabilization (TSA)” value is 20 °C and the “THERMAL SHIFT ASSAY +Tm (°)” value is 20.0 ± 0.6 °. Moreover, the “Thermal Shift Assay Mean (ΔTm (º))” value in the experiment on dCK-C3S-S74E (Figure 2b) is 20.0 º.

Turning to `Cc1ccc(NC(=O)c2ccc(CN3CCN(C)CC3)cc2)cc1Nc1nc(-c2nccc(N)n2)cs1` [dCKi1], in the experiment with CCRF-CEM cell line [1] (setting [3]), the activity at 0.039 µM came out at 94.3%, the activity at 0.078 µM stood at 88.7%, the activity at 0.156 µM is 91% and the activity at 0.312 µM came to 94.4%. In addition, in the experiment on CCRF-CEM cell line [1] (setting [3]), the activity at 0.625 µM came out at 93.2%, the activity at 1.25 µM came to 98.2%, the activity at 2.5 µM came to 91.8% and the activity at 5 µM is 67.7%. Further, in the experiment with CCRF-CEM cell line [1] (setting [3]), the activity at 20 µM was found to be 8.1%. Also, in the experiment with CCRF-CEM cell line [1] (setting [4]), the activity at 10 µM worked out at 31%. Further, the activity at 10 µM in the experiment with CCRF-CEM cell line [1] (setting [6]) amounted to 47%. The IC50 in the experiment on CCRF-CEM cell line [1] (setting [7]) is 6950 ± 2530 nM. Also, the IC50 with CCRF-CEM cell line [1] (setting [8]) was 6900 nM. The “Cell proliferation of the CCRF-CEM cell line Mean (% prolif)” value with CCRF-CEM cell line [2] is 76.3%. In the experiment with dCK-C3S-S74E, the “ΔTm, dCK thermal stabilization (TSA)” value is 14.3 °C and the “THERMAL SHIFT ASSAY +Tm (°)” value is reported as 14.3 ± 0.4 °. For the same compound, the “Thermal Shift Assay Mean (ΔTm (º))” value in the experiment with dCK-C3S-S74E (Figure 1b) is reported as 14.3 º.

Regarding `Cc1ccc(NC(=O)c2ccc(CN3CCN(C)CC3)cc2)cc1Nc1nc(-c2nc(N)cc(N)n2)cs1` [dCKi2, N-(3-((4-(4,6-diaminopyrimidin-2-yl)thiazol-2-yl)amino)-4-methylphenyl)-4-((4-methylpiperazin-1-yl)methyl)benzamide], in the experiment with CCRF-CEM cell line [1] (setting [3]), the activity at 0.078 µM came out at 95.9%, the activity at 0.156 µM worked out at 91.9%, the activity at 0.312 µM was 100% and the activity at 0.625 µM came out at 95.6%. In addition, in the experiment on CCRF-CEM cell line [1] (setting [3]), the activity at 1.25 µM was 94.5%, the activity at 2.5 µM worked out at 86%, the activity at 5 µM was found to be 58.8% and the activity at 20 µM amounted to 14%. In the experiment with CCRF-CEM cell line [1] (setting [3]), the activity at 40 µM worked out at 6.8%. Also, the activity at 10 µM in the experiment on CCRF-CEM cell line [1] (setting [4]) worked out at 29.6%. For the same compound, the activity at 10 µM in the experiment on CCRF-CEM cell line [1] (setting [6]) turned out to be 42.3%. Also, the IC50 with CCRF-CEM cell line [1] (setting [7]) was found to be 8910 ± 3340 nM. Also, the IC50 in the experiment with CCRF-CEM cell line [1] (setting [8]) is 8900 nM. Further, the “Cell proliferation of the CCRF-CEM cell line Mean (% prolif)” value in the experiment on CCRF-CEM cell line [2] was found to be 78.4%. In the experiment on dCK-C3S-S74E, the “ΔTm, dCK thermal stabilization (TSA)” value came out at 17.3 °C and the “THERMAL SHIFT ASSAY +Tm (°)” value came out at 17.3 ± 0.2 °. The “Thermal Shift Assay Mean (ΔTm (º))” value in the experiment on dCK-C3S-S74E (Figure 1b) is listed as 17.3 º.
